Laboratory results from ChEMBL document CHEMBL4043168, “The design and SAR of a novel series of 2-aminopyridine based LRRK2 inhibitors” (Bioorg Med Chem Lett, 2017).

Tests used:
[1] = biological target: Serine/threonine-protein kinase TBK1 (Homo sapiens) (UniProt Q9UHD2); test: Inhibition of TBK1 conserved Lys2 (DIKPGNIMR) in human PBMC at 0.1 uM
[2] = biological target: Serine/threonine-protein kinase Nek7 (Homo sapiens) (UniProt Q8TDX7); test: Inhibition of NEK7 conserved Lys1 (AACLLDGVPVALKK) in human PBMC at 0.1 uM
Sequence of Serine/threonine-protein kinase Nek7 (Homo sapiens) (Q8TDX7 whole entry, looked up, the tested form may be a part): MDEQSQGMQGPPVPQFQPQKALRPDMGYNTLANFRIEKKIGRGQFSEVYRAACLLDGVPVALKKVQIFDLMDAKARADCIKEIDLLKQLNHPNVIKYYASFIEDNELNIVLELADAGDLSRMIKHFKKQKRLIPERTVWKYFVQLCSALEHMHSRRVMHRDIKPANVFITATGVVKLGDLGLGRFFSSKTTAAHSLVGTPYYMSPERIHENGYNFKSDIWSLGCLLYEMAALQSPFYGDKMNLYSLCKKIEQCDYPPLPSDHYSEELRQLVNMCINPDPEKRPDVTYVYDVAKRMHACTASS

[3] = biological target: Serine/threonine-protein kinase/endoribonuclease IRE1 (Homo sapiens) (UniProt O75460); test: Inhibition of IRE1 conserved Lys2 (DLKPHNILISMPNAHGK) in human PBMC at 0.1 uM
[4] = biological target: Ribosomal protein S6 kinase alpha-3 (Homo sapiens) (UniProt P51812); test: Inhibition of RSK2 domain1 ATP binding site (VLGQGSFGKVFLVK) in human PBMC at 0.1 uM
Sequence of Ribosomal protein S6 kinase alpha-3 (Homo sapiens) (P51812 whole entry, the tested form may be a part): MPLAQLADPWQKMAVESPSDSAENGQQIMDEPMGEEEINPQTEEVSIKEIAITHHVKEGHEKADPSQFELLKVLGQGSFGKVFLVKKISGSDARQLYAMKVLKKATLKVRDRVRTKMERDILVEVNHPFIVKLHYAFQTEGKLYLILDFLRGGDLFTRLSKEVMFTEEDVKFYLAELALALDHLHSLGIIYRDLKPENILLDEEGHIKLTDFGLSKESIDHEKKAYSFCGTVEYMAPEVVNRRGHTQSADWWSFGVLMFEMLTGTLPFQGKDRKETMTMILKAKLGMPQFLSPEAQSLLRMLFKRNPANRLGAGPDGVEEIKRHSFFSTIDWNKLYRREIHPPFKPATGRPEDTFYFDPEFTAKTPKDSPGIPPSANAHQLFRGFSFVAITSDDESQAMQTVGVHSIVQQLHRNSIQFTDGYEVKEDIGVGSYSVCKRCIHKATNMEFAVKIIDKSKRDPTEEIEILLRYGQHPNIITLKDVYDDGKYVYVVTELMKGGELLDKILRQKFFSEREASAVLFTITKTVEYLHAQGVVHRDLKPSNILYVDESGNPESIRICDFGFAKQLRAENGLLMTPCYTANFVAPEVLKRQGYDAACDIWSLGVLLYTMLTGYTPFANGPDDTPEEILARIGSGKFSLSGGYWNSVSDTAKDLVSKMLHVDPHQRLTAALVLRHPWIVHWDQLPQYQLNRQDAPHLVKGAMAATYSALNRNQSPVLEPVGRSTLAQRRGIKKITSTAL

[5] = biological target: Serine/threonine-protein kinase Nek8 (Homo sapiens) (UniProt Q86SG6); test: Inhibition of NEK8 conserved Lys2 (DLKTQNILLDK) in human PBMC at 0.1 uM
[6] = biological target: Serine/threonine-protein kinase 24 (Homo sapiens) (UniProt Q9Y6E0); test: Inhibition of MST3 conserved Lys2 (DIKAANVLLSEHGEVK) in human PBMC at 1 uM
Sequence of Serine/threonine-protein kinase 24 (Homo sapiens) (Q9Y6E0 whole entry, looked up): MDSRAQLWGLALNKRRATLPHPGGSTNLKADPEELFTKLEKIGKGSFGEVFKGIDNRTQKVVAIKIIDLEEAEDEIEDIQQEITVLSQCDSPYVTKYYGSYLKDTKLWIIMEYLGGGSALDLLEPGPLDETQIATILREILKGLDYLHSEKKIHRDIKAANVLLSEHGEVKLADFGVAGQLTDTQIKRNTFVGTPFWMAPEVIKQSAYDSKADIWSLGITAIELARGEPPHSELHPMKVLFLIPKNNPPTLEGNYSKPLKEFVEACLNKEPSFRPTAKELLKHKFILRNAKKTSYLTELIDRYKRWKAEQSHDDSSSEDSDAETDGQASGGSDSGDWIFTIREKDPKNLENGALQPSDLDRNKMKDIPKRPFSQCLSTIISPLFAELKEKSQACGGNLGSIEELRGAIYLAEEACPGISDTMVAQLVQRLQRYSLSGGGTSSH

[7] = biological target: Cyclin-dependent kinase 11B (Homo sapiens) (UniProt P21127); test: Inhibition of CDK11 labeling at conserved Lys2 (DLKPANILVMGEGPER) in human PBMC at 1 uM
[8] = biological target: T1, Inhibitor of nuclear factor kappa-B kinase subunit epsilon (Homo sapiens) (UniProt Q14164); test: Inhibition of IKKe conserved Lys2 (DIKPGNIMR) in human PBMC at 0.1 uM
T1 sequence (whole entry): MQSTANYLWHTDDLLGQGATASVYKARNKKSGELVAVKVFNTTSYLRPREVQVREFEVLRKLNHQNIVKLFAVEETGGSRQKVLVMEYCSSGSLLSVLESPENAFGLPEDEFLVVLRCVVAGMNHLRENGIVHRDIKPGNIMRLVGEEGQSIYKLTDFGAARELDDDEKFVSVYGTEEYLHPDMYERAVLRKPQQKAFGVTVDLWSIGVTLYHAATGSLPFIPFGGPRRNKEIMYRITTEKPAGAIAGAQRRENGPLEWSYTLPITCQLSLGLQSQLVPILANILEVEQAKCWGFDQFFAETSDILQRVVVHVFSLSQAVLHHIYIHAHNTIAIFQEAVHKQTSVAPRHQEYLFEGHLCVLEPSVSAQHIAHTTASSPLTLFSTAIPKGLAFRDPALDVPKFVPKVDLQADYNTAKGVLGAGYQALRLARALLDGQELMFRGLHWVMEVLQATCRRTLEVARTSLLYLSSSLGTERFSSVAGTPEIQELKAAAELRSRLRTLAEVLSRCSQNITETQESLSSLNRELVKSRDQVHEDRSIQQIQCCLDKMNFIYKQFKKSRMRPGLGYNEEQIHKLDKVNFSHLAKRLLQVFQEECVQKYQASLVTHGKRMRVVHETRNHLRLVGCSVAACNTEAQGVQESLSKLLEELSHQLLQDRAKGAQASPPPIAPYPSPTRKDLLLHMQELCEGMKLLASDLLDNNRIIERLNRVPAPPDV

[9] = biological target: RAC-beta serine/threonine-protein kinase (Homo sapiens) (UniProt P31751); test: Inhibition of AKT2 labeling at ATP binding site (GTFGKVILVR) in human PBMC at 1 uM
[10] = biological target: Tyrosine-protein kinase Yes (Homo sapiens) (UniProt P07947); test: Inhibition of YES activation Loop (QGAKFPIKWTAPEAALYGR) in human PBMC at 1 uM
[11] = biological target: Interleukin-1 receptor-associated kinase 1 (Homo sapiens) (UniProt P51617); test: Inhibition of IRAK1 conserved Lys2 (AIQFLHQDSPSLIHGDIKSSNVLLDER) in human PBMC at 0.1 uM
Sequence of Interleukin-1 receptor-associated kinase 1 (Homo sapiens) (P51617 whole entry, looked up): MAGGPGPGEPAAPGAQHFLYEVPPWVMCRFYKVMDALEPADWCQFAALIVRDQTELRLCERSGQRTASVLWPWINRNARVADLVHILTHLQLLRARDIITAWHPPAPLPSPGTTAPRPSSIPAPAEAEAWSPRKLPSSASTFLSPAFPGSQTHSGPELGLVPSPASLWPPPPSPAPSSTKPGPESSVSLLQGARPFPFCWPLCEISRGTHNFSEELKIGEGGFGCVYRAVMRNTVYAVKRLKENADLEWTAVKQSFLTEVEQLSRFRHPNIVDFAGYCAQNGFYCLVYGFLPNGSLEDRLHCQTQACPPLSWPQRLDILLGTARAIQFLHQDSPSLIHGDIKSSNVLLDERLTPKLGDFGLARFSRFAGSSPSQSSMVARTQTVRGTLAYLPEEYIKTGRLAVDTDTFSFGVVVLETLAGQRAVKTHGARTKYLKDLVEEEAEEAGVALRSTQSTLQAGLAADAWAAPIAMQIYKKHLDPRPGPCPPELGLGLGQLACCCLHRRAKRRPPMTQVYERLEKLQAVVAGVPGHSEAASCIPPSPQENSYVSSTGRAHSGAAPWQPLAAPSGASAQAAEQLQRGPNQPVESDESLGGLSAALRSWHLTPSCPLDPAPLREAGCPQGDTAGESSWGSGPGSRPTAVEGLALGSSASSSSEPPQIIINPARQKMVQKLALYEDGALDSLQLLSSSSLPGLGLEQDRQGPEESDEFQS

[12] = biological target: 5'-AMP-activated protein kinase catalytic subunit alpha-2 (Homo sapiens) (UniProt P54646); test: Inhibition of AMPKa2 labeling at conserved Lys1 (VAVKILNR) in human PBMC at 0.1 uM
Sequence of 5'-AMP-activated protein kinase catalytic subunit alpha-2 (Homo sapiens) (P54646 whole entry, looked up): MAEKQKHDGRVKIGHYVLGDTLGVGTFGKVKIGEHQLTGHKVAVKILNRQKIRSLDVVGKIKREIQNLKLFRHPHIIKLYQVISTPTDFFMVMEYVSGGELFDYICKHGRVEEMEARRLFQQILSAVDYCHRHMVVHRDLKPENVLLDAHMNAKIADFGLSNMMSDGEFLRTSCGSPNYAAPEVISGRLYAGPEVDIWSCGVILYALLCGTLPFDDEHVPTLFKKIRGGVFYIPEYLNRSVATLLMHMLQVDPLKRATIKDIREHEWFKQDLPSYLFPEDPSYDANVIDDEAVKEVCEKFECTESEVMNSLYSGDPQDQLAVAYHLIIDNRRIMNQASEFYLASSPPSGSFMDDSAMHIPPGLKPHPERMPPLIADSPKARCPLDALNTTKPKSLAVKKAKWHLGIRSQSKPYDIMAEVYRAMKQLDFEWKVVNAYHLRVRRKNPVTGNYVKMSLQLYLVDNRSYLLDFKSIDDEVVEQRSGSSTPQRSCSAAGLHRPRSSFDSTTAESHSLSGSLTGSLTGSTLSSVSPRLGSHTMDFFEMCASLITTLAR

[13] = biological target: Serine/threonine-protein kinase Chk2 (Homo sapiens) (UniProt O96017); test: Inhibition of CHK2 labeling at conserved Lys1 (VAIKIISK) in human PBMC at 0.1 uM
Sequence of Serine/threonine-protein kinase Chk2 (Homo sapiens) (O96017 whole entry): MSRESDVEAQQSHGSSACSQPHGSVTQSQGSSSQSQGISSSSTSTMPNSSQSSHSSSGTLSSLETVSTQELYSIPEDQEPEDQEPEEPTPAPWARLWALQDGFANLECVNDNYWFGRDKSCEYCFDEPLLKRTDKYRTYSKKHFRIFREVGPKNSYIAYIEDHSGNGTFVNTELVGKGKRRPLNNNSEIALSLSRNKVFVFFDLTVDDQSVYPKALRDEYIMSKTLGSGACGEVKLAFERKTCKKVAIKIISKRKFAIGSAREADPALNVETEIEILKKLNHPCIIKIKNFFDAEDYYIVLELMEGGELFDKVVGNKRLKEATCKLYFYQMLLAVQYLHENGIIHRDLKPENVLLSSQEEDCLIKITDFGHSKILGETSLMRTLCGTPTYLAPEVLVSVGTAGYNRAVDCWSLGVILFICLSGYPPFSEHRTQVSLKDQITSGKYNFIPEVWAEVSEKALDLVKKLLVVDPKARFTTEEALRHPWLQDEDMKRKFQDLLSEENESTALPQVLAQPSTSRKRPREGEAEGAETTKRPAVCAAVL

[14] = biological target: Mitogen-activated protein kinase 14 (Homo sapiens) (UniProt Q16539); test: Inhibition of p38a (QELNKTIWEVPER) in human PBMC at 0.1 uM
Sequence of Mitogen-activated protein kinase 14 (Homo sapiens) (Q16539 whole entry): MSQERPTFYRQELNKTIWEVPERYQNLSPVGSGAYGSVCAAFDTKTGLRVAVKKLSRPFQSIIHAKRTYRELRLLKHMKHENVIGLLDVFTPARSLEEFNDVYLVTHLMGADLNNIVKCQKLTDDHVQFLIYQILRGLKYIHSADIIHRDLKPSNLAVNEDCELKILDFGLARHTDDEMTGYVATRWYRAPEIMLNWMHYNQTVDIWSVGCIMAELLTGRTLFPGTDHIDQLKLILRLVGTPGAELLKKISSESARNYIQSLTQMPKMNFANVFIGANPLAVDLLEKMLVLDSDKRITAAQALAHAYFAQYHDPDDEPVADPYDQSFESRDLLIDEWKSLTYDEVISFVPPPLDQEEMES

[15] = biological target: Calcium/calmodulin-dependent protein kinase type 1D (Homo sapiens) (UniProt Q8IU85); test: Inhibition of CaMK1d labeling at conserved Lys2 (DLKPENLLYYSQDEESK) in human PBMC at 1 uM
Sequence of Calcium/calmodulin-dependent protein kinase type 1D (Homo sapiens) (Q8IU85 whole entry, looked up): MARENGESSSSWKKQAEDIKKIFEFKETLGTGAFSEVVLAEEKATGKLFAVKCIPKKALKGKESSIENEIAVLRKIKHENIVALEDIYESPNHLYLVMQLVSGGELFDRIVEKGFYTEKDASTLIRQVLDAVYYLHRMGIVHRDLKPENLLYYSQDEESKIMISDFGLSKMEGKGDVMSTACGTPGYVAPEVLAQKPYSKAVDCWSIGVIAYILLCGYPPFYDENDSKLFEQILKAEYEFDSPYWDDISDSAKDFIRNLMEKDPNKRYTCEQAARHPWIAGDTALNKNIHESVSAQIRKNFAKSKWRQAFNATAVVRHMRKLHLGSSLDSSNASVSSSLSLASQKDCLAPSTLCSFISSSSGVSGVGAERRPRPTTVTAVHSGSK

[16] = biological target: Mitogen-activated protein kinase 8 (Homo sapiens) (UniProt P45983); test: Inhibition of JNK1 conserved Lys2 (DLKPSNIVVK) in human PBMC at 0.1 uM
[17] = biological target: Mitogen-activated protein kinase kinase kinase 1 (Homo sapiens) (UniProt Q13233); test: Inhibition of MAP3K1 conserved Lys2 (DVKGANLLIDSTGQR) in human PBMC at 0.1 uM
[18] = biological target: Inhibitor of nuclear factor kappa-B kinase subunit alpha (Homo sapiens) (UniProt O15111); test: Inhibition of IKKa conserved Lys2 (DLKPENIVLQDVGGK) in human PBMC at 0.1 uM
[19] = biological target: Serine/threonine-protein kinase WNK1 (Homo sapiens) (UniProt Q9H4A3); test: Inhibition of Wnk1 activation Loop (IGDLGLATLKR) in human PBMC at 1 uM
Homo sapiens = species: Homo sapiens; test: Inhibition of p70S6K conserved Lys2 (DLKPENIMLNHQGHVK) in human PBMC at 0.1 uM
[20] = biological target: Serine/threonine-protein kinase Nek7 (Homo sapiens) (UniProt Q8TDX7); test: Inhibition of NEK7 conserved Lys2 (DIKPANVFITATGVVK) in human PBMC at 0.1 uM
[21] = biological target: Ribosomal protein S6 kinase alpha-3 (Homo sapiens) (UniProt P51812); test: Inhibition of RSK2 domain1 activation Loop (LTDFGLSKESIDHEKK) in human PBMC at 0.1 uM
[22] = biological target: T1, Inhibitor of nuclear factor kappa-B kinase subunit epsilon (Homo sapiens); test: Inhibition of IKKe conserved Lys2 (DIKPGNIMR) in human PBMC at 1 uM
[23] = biological target: Ribosomal protein S6 kinase delta-1 (Homo sapiens) (UniProt Q96S38); test: Inhibition of RSKL1 domain1 Protein Kinase Domain (VLGVIDKVLLVMDTR) in human PBMC at 1 uM
[24] = biological target: T1, Inhibitor of nuclear factor kappa-B kinase subunit epsilon (Homo sapiens); test: Inhibition of IKKe conserved Lys1 (SGELVAVKVFNTTSYLRPR) in human PBMC at 1 uM

Sequence of Serine/threonine-protein kinase TBK1 (Homo sapiens) (Q9UHD2 whole entry): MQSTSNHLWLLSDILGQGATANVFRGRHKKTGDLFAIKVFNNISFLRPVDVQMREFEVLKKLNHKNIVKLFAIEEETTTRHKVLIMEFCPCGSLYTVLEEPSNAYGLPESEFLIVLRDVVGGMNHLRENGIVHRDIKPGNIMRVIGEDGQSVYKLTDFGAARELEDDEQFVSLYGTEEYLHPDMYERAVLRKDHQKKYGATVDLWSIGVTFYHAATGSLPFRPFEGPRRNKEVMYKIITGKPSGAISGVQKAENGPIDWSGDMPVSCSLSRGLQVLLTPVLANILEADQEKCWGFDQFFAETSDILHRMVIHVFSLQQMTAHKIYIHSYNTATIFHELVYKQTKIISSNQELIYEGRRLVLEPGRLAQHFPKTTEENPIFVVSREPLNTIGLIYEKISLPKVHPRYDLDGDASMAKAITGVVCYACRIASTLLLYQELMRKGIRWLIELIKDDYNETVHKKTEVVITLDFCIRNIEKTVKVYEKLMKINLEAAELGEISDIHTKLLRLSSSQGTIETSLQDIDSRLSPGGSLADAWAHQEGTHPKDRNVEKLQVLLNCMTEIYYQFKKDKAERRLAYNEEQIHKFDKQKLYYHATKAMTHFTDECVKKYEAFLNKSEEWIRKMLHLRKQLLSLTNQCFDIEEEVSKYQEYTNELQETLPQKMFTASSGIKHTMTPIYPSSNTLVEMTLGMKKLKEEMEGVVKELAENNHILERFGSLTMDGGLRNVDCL

CC(C)n1cc(-c2cc(-c3ccc(CN4CCOCC4)cc3)cnc2N)nn1
inhibition [1]: 21.7%
inhibition [2]: 7.6%
inhibition [3]: 22.1%
inhibition [4]: 3.1%
inhibition [5]: 0.2%
inhibition [6]: 7.2%
inhibition [7]: 1.5%
inhibition [8]: 21.7%
inhibition [9]: 20.5%
inhibition [10]: -2.3%
inhibition [11]: 22.7%
inhibition [12]: 7.7%
inhibition [13]: 9.7%
inhibition [14]: 8.2%
inhibition [15]: -0.9%
inhibition [16]: 25.1%
inhibition [17]: 29.6%
inhibition [18]: -7.4%
inhibition [19]: 21.9%
inhibition (Homo sapiens): 25.3%
inhibition [20]: -4.8%
inhibition [21]: 7.7%
inhibition [22]: 11%
inhibition [23]: 4.7%
inhibition [24]: 5.5%
